Test results reported in US20250163054A1, “SUBSTITUTED BICYCLIC HETEROARYL COMPOUNDS USEFUL AS INHIBITORS OF TLR9” (Bristol-Myers Squibb Company, priority 2022, published 2025).

Tests used:
Type in all cases: cell-based
[1] = target: T1, human TLR7 (Homo sapiens, UniProt Q9NYK1); experiment: TLR7/8/9 Inhibition Reporter Assays (TLR7); conditions: HEK-Blue cells overexpressing human TLR7, SEAP reporter, stimulated with TLR7 ligand gardiquimod
T1 construct: host or cells: HEK-Blue cells (HEK293-derived reporter line)
T1 sequence (Q9NYK1 27-1049): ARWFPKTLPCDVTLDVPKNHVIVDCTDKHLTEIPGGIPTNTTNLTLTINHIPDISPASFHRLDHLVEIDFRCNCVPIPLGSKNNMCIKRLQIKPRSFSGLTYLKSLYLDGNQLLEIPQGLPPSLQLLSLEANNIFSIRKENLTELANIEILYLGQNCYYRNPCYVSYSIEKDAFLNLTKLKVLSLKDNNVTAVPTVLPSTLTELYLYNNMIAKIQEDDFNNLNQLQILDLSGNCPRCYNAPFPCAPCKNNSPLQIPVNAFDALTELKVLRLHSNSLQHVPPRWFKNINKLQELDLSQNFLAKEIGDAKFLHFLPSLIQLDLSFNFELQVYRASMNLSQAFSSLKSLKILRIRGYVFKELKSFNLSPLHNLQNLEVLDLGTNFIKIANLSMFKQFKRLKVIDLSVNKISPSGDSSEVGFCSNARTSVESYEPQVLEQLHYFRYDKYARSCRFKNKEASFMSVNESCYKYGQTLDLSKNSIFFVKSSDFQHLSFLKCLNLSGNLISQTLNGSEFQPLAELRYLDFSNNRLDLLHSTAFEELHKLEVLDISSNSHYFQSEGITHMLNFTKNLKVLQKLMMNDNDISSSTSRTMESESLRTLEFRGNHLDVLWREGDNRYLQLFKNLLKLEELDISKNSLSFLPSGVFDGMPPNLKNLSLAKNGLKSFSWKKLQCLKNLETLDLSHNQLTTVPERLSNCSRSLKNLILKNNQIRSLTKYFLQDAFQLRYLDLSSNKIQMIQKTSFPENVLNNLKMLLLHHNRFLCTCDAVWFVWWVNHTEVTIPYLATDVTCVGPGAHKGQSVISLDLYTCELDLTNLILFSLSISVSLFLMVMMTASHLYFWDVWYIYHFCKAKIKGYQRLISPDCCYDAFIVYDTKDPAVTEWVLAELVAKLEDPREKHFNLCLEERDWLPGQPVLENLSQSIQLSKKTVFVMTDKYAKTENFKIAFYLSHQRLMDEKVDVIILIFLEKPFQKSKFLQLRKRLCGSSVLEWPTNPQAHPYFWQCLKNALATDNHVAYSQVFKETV
In short: (§1)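 HEK-Blue cells overexpressing human TLR7, TLR8 or TLR9 with NF-κB/AP-1-driven SEAP reporter, pre-treated 60 min with compound ([…]). Stimulated with […] (TLR7), […] (TLR8) or ODN2006 200 nM (TLR9), then 22 h at 37° C; SEAP measured, % inhibition relative to agonist-plus-DMSO and known-inhibitor wells.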

[2] = target: T2, human TLR8 (Homo sapiens, UniProt Q9NR97); experiment: TLR7/8/9 Inhibition Reporter Assays (TLR8); conditions: HEK-Blue cells overexpressing human TLR8, SEAP reporter, stimulated with TLR8 ligand R848
T2 construct: host or cells: HEK-Blue cells (HEK293-derived reporter line)
T2 sequence (Q9NR97 27-1041): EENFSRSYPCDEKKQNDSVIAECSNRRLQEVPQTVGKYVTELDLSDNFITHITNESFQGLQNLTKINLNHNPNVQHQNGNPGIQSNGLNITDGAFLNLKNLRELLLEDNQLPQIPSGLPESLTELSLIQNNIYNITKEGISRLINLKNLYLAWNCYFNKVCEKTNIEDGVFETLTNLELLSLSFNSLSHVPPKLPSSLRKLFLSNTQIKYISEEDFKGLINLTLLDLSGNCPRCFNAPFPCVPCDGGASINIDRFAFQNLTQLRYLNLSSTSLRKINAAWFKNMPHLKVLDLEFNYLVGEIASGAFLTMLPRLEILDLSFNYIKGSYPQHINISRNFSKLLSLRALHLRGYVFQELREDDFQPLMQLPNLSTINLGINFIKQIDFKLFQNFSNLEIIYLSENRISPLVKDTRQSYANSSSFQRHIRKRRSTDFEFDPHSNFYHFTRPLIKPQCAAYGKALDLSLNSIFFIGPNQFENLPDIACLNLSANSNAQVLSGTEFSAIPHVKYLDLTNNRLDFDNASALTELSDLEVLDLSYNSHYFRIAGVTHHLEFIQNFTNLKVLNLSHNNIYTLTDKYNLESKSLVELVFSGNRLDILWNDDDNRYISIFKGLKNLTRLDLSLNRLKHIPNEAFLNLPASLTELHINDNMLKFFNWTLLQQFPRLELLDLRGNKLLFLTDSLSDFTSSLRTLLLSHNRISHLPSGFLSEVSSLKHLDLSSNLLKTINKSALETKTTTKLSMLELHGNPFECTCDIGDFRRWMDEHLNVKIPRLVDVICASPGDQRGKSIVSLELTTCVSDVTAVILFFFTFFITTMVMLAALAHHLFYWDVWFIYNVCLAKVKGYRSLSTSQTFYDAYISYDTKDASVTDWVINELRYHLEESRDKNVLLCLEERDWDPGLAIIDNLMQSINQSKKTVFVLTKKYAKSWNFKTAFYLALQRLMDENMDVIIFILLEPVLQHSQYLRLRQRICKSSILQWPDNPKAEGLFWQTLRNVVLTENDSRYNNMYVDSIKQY
In short: as §1

[3] = target: T3, human TLR9 (Homo sapiens, UniProt Q9NR96); experiment: TLR7/8/9 Inhibition Reporter Assays (TLR9); conditions: HEK-Blue cells overexpressing human TLR9, SEAP reporter, stimulated with TLR9 ligand ODN2006
T3 construct: host or cells: HEK-Blue cells (HEK293-derived reporter line)
T3 sequence (Q9NR96 26-1032): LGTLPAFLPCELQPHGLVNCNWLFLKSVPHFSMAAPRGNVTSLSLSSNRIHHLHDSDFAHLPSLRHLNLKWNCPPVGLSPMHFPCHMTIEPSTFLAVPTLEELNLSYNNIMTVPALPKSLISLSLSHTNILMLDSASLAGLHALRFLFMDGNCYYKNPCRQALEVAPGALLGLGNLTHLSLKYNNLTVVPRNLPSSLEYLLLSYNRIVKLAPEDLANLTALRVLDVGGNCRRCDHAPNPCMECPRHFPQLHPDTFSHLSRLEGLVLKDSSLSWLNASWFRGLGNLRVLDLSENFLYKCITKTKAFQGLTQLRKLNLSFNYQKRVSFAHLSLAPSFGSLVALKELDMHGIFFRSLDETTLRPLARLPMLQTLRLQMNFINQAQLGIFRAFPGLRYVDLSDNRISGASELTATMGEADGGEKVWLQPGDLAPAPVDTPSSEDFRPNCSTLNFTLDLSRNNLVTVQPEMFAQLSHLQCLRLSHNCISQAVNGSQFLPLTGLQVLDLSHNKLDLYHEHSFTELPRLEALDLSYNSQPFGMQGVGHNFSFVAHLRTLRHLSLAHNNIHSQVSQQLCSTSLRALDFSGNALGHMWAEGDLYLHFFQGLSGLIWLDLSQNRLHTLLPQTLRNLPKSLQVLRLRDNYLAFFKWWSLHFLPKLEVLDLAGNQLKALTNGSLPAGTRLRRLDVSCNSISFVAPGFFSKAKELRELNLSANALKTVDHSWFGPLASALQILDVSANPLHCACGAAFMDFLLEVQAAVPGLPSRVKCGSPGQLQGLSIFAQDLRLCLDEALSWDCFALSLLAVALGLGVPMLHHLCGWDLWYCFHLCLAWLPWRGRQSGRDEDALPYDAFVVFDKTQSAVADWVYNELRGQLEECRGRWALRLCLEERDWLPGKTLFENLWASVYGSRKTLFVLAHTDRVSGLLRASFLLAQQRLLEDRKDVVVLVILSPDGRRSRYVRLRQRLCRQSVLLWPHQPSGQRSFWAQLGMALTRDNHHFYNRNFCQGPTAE
In short: as §1

SMILES | IC50 [1] | IC50 [2] | IC50 [3]
Cc1nc(C2CCN(C3CCN(C(C)C)CC3)CC2)cc2c1nc(-c1ccc(S(C)(=O)=O)cc1)n2C [Example 38, 6-(1′-isopropyl-[1,4′-bipiperidin]-4-yl)-1,4-dimethyl-2-(4-(methylsulfonyl)phenyl)-1H-imidazo[4,5-c]pyridine] | 7700 nM | > 50000 nM | 130 nM
Cc1nc(C2CCN(C3CCN(CC(C)C)CC3)CC2)cc2c1nc(-c1ccc(S(C)(=O)=O)cc1)n2C [Example 39, 6-(1′-isobutyl-[1,4′-bipiperidin]-4-yl)-1,4-dimethyl-2-(4-(methylsulfonyl)phenyl)-1H-imidazo[4,5-c]pyridine] | 920 nM | > 50000 nM | 36 nM
Cc1nc(-c2ccc(N3CCC(N4CCCC4)CC3)cc2)cc2c1nc(-c1ccc(S(C)(=O)=O)cc1)n2C [Example 41, 1,4-dimethyl-2-(4-(methylsulfonyl)phenyl)-6-(4-(4-(pyrrolidin-1-yl)piperidin-1-yl)phenyl)-1H-imidazo[4,5-c]pyridine] | 5800 nM | > 50000 nM | 110 nM
Cc1nc(-c2ccc(N3CCC(N4CCCC4)CC3)c(F)c2)cc2c1nc(-c1ccc(S(C)(=O)=O)cc1)n2C [Example 42, 6-(3-fluoro-4-(4-(pyrrolidin-1-yl)piperidin-1-yl)phenyl)-1,4-dimethyl-2-(4-(methylsulfonyl)phenyl)-1H-imidazo[4,5-c]pyridine] | 2400 nM | > 50000 nM | 440 nM
Cc1nc(-c2ccc(N3CCC(N4CCCC4)CC3)cc2)c(F)c2c1nc(-c1ccc(S(C)(=O)=O)cc1)n2C [Example 44, 7-fluoro-1,4-dimethyl-2-(4-(methylsulfonyl)phenyl)-6-(4-(4-(pyrrolidin-1-yl)piperidin-1-yl)phenyl)-1H-imidazo[4,5-c]pyridine] | 7800 nM | > 50000 nM | 2500 nM
Cc1nc(-c2ccc(CN3CCC(N4CCCC4)CC3)cc2)cc2c1nc(-c1ccc(S(C)(=O)=O)cc1)n2C [Example 46, 1,4-dimethyl-2-(4-(methylsulfonyl)phenyl)-6-(4-((4-(pyrrolidin-1-yl)piperidin-1-yl)methyl)phenyl)-1H-imidazo[4,5-c]pyridine] | 1000 nM | 5500 nM | 58 nM
Cc1nc(-c2ccc(CN3CCC(N4CCOCC4)CC3)cc2)cc2c1nc(-c1ccc(S(C)(=O)=O)cc1)n2C1CC1 [Example 48, 4-(1-(4-(1-cyclopropyl-4-methyl-2-(4-(methylsulfonyl)phenyl)-1H-imidazo[4,5-c]pyridin-6-yl)benzyl)piperidin-4-yl) morpholine] | 3800 nM | 1700 nM | 270 nM

Further molecules by falling IC50 [1], results first:

IC50 [1] | IC50 [2] | IC50 [3] | SMILES
9100 nM | > 50000 nM | 120 nM | Cc1nc(C2CCN(C3CCN(CC(C)(C)O)CC3)CC2)cc2c1nc(-c1ccc(S(C)(=O)=O)cc1)n2C [Example 40, 1-(4-(1,4-dimethyl-2-(4-(methylsulfonyl)phenyl)-1H-imidazo[4,5-c]pyridin-6-yl)-[1,4′-bipiperidin]-1′-yl)-2-methylpropan-2-ol]
3900 nM | 2300 nM | 290 nM | Cc1nc(-c2ccc(N3CCC(N4CCCC4)CC3)cc2F)cc2c1nc(-c1ccc(S(C)(=O)=O)cc1)n2C [Example 43, 6-(2-fluoro-4-(4-(pyrrolidin-1-yl)piperidin-1-yl)phenyl)-1,4-dimethyl-2-(4-(methylsulfonyl)phenyl)-1H-imidazo[4,5-c]pyridine]
1700 nM | 5500 nM | 230 nM | Cc1nc(-c2ccc(CN3CCC(N(C)C4CC4)CC3)cc2)cc2c1nc(-c1ccc(S(C)(=O)=O)cc1)n2C [Example 47, N-cyclopropyl-1-(4-(1,4-dimethyl-2-(4-(methylsulfonyl)phenyl)-1H-imidazo[4,5-c]pyridin-6-yl)benzyl)-N-methylpiperidin-4-amine]
1700 nM | 2600 nM | 28 nM | Cc1nc(-c2ccc(N3CCN(CCCN4CCOCC4)CC3)cc2)cc2c1nc(-c1ccc(S(C)(=O)=O)cc1)n2C [Example 52, 4-(3-(4-(4-(1,4-dimethyl-2-(4-(methylsulfonyl)phenyl)-1H-imidazo[4,5-c]pyridin-6-yl)phenyl)piperazin-1-yl)propyl)morpholine]
1100 nM | > 50000 nM | 530 nM | COC1CCN(Cc2ccc(-c3ccc(-c4cc5c(nc(-c6ccc(S(C)(=O)=O)cc6)n5C)c(C)n4)cc3)nc2)CC1 [Example 50, 6-(4-(5-((4-methoxypiperidin-1-yl)methyl)pyridin-2-yl)phenyl)-1,4-dimethyl-2-(4-(methylsulfonyl)phenyl)-1H-imidazo[4,5-c]pyridine]
1000 nM | 4900 nM | 72 nM | Cc1nc(-c2ccc(CN3CCC(N(C)C)CC3)cc2)cc2c1nc(-c1ccc(S(C)(=O)=O)cc1)n2C [Example 45, 1-(4-(1,4-dimethyl-2-(4-(methylsulfonyl)phenyl)-1H-imidazo[4,5-c]pyridin-6-yl)benzyl)-N,N-dimethylpiperidin-4-amine]
